Measured values taken from patent US9457039B2, “2′-disubstituted nucleoside derivatives and methods of use thereof for the treatment of viral diseases” (Merck Sharp & Dohme Corp., priority 2012, dated 2016).

System: HCV replicon (1b) cells
Assay: Cell-based HCV replicon assay (replicon RNA level by real time PCR, Taqman)
Settings: HCV replicon cells, harvested on day 3; EC50 = concentration giving ΔCT=1 over baseline; read-out: 1b EC50
Description: To measure cell-based anti-HCV activity of selected compounds of the present invention, replicon cells were seeded at 5000 cells/well in 96-well collagen I-coated Nunc plates in the presence of the test compound. Various concentrations of test compound, typically in 10 serial 2-fold dilutions, were added to the assay mixture, with the starting concentration ranging from 250 μM to 1 μM. The final concentration of dimethylsulfoxide was 0.5% fetal bovine serum was 5%, in the assay media. Cells were harvested on day 3 by the addition of 1× cell lysis buffer (Ambion cat #8721).
The replicon RNA level was measured using real time PCR (Taqman assay). The amplicon was located in 5B. The PCR primers were: 5B.2F, […] (SEQ ID. NO. 1); 5B.2R, […] (SEQ ID. NO. 2); the probe sequence was FAM-labeled […] (SEQ ID. NO. 3). GAPDH RNA was used as endogenous control and was amplified in the same reaction as NS5B (multiplex PCR) using primers and VIC-labeled probe recommended by the manufacturer (PE Applied Biosystem). The real-time RT-PCR reactions were run on ABI PRISM 7900HT Sequence Detection System using the following program: 48° C. for 30 minutes, 95° C. for 10 minutes, 40 cycles of 95° C. for 15 sec, 60° C. for 1 minute. The ΔCT values (CT5B-CTGAPDH) were plotted against the concentration of test compound and fitted to the sigmoid dose-response model using XLfit4 (MDL). […] Alternatively, to quantitate the absolute amount of replicon RNA, a standard curve was established by including serially diluted T7 transcripts of replicon RNA in the Taqman assay. All Taqman reagents were from […] Applied Biosystems. Such an assay procedure was described in detail in e.g. Malcolm et al., Antimicrobial Agents and Chemotherapy 50: 1013-1020 (2006).

SMILES	EC50
CC(C)OP1(=O)OC[C@H]2O[C@@H](c3cnn4c(N)ncnc34)[C@](C)(N)[C@@H]2O1 (stereo partly shown) [Compound 21]	> 100 µM
CC(C)OP1(=O)OC[C@H]2O[C@@H](c3cnc4c(N)ncnn34)[C@](C)(N)[C@@H]2O1 (stereo partly shown) [Compound 19]	> 100 µM

Same assay, conditions: Hepatitis C virus, 72 h; read-out: 1b EC50

SMILES	EC50
C[C@@]1(N=[N+]=[N-])[C@H](O)[C@@H](CO)O[C@H]1c1cnn2c(N)ncnc12 [Compound 4]	> 100 µM
CC(C)OP1(=O)OC[C@H]2O[C@@H](c3cnn4c(N)ncnc34)[C@](C)(N)[C@@H]2O1 (stereo partly shown) [Compound 20]	> 100 µM
C[C@@]1(N=[N+]=[N-])[C@H](O)[C@@H](CO)O[C@H]1c1cnc2c(N)ncnn12 [Compound 3]	> 100 µM
CC(C)OP1(=O)OC[C@H]2O[C@@H](c3cnc4c(N)ncnn34)[C@](C)(N)[C@@H]2O1 (stereo partly shown) [Compound 18]	> 100 µM
C[C@@]1(N)[C@H](O)[C@@H](CO)O[C@H]1c1cnn2c(N)ncnc12 [Compound 7]	> 100 µM
C[C@@]1(N)[C@H](O)[C@@H](CO)O[C@H]1c1cnc2c(N)ncnn12 [Compound 6]	> 100 µM

Same assay, conditions: read-out: 1b EC50; HCV replicon cells, harvested on day 3; EC50 = concentration giving ΔCT=1 over baseline

SMILES	EC50
CC(C)OC(=O)[C@H](C)NP(=O)(OC[C@H]1O[C@@H](c2cnn3c(N)ncnc23)[C@](C)(N)[C@@H]1O)Oc1ccccc1 (stereo partly shown) [Compound 14]	> 100 µM
CC(C)OC(=O)[C@H](C)NP(=O)(OC[C@H]1O[C@@H](c2cnn3c(N)ncnc23)[C@](C)(N)[C@@H]1O)Oc1ccccc1 (stereo partly shown) [Compound 15]	28 µM
